# Source: BindingDB's records for patent US12043645 (Memorial Sloan-Kettering Cancer Center, 2024)
# Target: Set1/Ash2 histone methyltransferase complex subunit ASH2 (Homo sapiens, UniProt Q9UBL3)
# Assay: Filter-paper Assay
# Protocol: This assay relies on Whatman P-81 filter paper, which binds peptides but not SAM. Protein Methyl Transferases (PMTs) transfer 3H-Me of [3H-Me]-SAM to peptide substrates and the resultant 3H-methylated, filter-paper-bound peptide is quantified with a scintillation counter. Briefly, 6 μL of the methylation reaction was spotted onto Whatman P-81 phosphocellulose filter paper (1.2×1.2 cm2) to immobilize the 3H-labeled peptide. After drying in air for 20 min, the filter paper was immersed into 20 mL of 50 mM Na2CO3/NaHCO3 buffer (pH=9.2), and washed 5 times for 10 min each time. The washed filter paper was then transferred to a 20 mL scintillation vial containing 1 mL of distilled water and 10 mL of Ultima Gold scintillation cocktail or 7 mL scintillation vial containing 0.5 mL od distilled water and 5 mL of scintillation cocktail (PerkinElmer). The radioactivity was quantified by a Beckman LS6000IC liquid scintillation counter.
# Set1/Ash2 histone methyltransferase complex subunit ASH2, sequence (Q9UBL3 whole entry, one chain of several): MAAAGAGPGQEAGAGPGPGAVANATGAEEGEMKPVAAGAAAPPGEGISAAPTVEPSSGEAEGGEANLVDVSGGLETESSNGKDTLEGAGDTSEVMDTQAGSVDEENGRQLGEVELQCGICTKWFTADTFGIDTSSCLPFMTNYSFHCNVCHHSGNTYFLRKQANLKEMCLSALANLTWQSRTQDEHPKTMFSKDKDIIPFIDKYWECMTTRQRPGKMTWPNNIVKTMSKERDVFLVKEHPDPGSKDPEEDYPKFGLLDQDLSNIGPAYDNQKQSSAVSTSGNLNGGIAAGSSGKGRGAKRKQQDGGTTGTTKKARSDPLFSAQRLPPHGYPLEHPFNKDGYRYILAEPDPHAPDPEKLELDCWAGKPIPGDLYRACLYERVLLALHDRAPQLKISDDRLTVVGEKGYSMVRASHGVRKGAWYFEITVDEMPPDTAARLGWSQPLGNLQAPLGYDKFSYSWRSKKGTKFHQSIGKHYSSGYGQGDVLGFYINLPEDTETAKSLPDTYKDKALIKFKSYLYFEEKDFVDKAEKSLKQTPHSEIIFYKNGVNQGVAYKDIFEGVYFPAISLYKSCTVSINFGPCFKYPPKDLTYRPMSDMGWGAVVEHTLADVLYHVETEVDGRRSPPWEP
row,IC50,Compound
1,2200 nM,"Nc1ncnc2c1ncn2C1OC(C[C@H](CC[C@H](N)C(=O)NCCc2cc(-c3ccccc3)[nH]n2)Nc2ccccc2)C(O)C1O (stereo partly drawn) [US12043645, Example 5]"
2,20 nM,"CCCNC(=O)[C@@H](N)CC[C@@H](CC1OC(n2cnc3c(N)ncnc32)C(O)C1O)Nc1ccccc1 (stereo partly drawn) [US12043645, Example 7]"
3,390 nM,"COc1ccc(CCNC(=O)[C@@H](N)CC[C@@H](CC2OC(n3cnc4c(N)ncnc43)C(O)C2O)Nc2ccccc2)cc1 (stereo partly drawn) [US12043645, Example 1]"
